In US12202816B2 (CALLIDITAS THERAPEUTICS SUISSE SA, priority 2018, dated 2025):

Target: hNOX enzymes
Assay: ROS production measurement on hNOX membranes (Amplex Red fluorescence assay, assay 1)
Assay type: biochemical, human
Details: membranes from CHO or HEK cells overexpressing hNox enzymes; Nox isoform not stated; non linear regression; read-out: Nox inhibitory constant Ki
Protocol: Reactive oxygen species (ROS) production generated by hNOX enzymes was measured by fluorescence in both cellular and membrane-based assays using the Amplex® Red reagent. In the presence of horseradish peroxidase (HRP), the Amplex® Red reagent (10-acetyl-3,7-dihydroxyphenoxazine, AR), which is a colorless and nonfluorescent derivative of dihydroresorufin, reacts with H2O2 with a 1:1 stoichiometry to produce highly fluorescent resorufin at an excitation and emission wavelengths of 544 nm and 590 nm, respectively.
Membranes from CHO or HEK cells overexpressing hNox enzymes were prepared as previously described (Palicz et al., 2001, J. Biol. Chem, 76, 3090). After resuspension in sonication buffer (11% sucrose, 120 mM NaCl, 1 mM EGTA in PBS, pH 7.4), cells were broken by sonication and centrifuged (200 g, 10 min). The supernatant was layered onto a 17/40% (w/v) discontinuous sucrose gradient and centrifuged (150,000 g for 30 min). Membrane fractions were collected from the 17/40% interface, aliquoted in 10 μl samples and were stored at −80° C. Protein concentration was determined with Bradford reagent. Flavin Adenine Dinucleotide (FAD) (catalog #F6625-500MG), MgCl2 (catalog #M8266-100G), Phosphatidic Acid (PA) (catalog #P3591-50MG) were purchased from Sigma-Aldrich. Horseradish peroxidase (HRP) (catalog #10108090001) was purchased from Roche. NADPH (catalog #A1395, 0500) was purchased from Applichem. Amplex red (AR) (catalog #A22177) was purchased from Invitrogen. 96 well polypropylene and black plates were purchased from Milian (catalog #055529 and #055218, respectively). FLUOstar OPTIMA microplate reader was supplied by BMG Labtech (Germany). Zephyr® Compact Liquid Handling Workstation was supplied by PerkinElmer (Germany).
Assay 1: ROS Production Measurement on hNOX Membranes
All Solutions were placed on ice and protected from light. The final concentration in the 1× hNOX membrane fluorescent assay buffer were PBS pH7, 6 μM FAD, 15 μM PA, 1 mM MgCl2, 12.5 μM AR, 0.02 u/ml, 125 ng membranes, 1.5 μg of cofactors and 30 μM NADPH. The NADPH was dissolved in water at a concentration of 12 mM and was transferred in a metal transfer plate kept at 4° C. The NADPH was added to the assay plate to initiate the reaction just before the measurement.
Serial dilution (1:3, 10 serial dilution) of the compounds was performed in 100% DMSO in 96 well polypropylene plate—Row B—H Column 1-10, Row A, Column 1-10 contained reference compound. Starting concentration was 10^−2 M (10 mM). Final concentration in assay was 10^−4 M (100 μM). Compounds were diluted twice in PBS buffer by transferring 30 μl/well of PBS into 30 μl/well compounds sample in DMSO using Zephyr® Compact Liquid Handling Workstation. Control wells-columns 1 and 12-contained 60 μl DMSO in 50% PBS pH7.
Reaction mixture is dispensed using Zephyr® Compact Liquid Handling Workstation. 90 μl of mix with membrane were dispensed into 96 well black plates—Column 2-11, Column 1 Row A-D, Column 12 Row E-H. 90 μl of control mix were dispensed into assay plate—Column 1 Row E-H, Column 12 Row A-D, which are wells for measuring background signal. 2 μl of compounds were dispensed into each well of assay plate using Zephyr® Compact Liquid Handling Workstation. The reaction mixture with compounds was incubated in assay plates for 20 min at 37° C. in a Titramax microplate incubator with gentle agitation. 10 μl of NADPH is dispensed to the assay plate. Fluorescence reading was recorded with the FLUOstar OPTIMA microplate reader for 10 min at 37° C. (8 cycles, 1 cycle duration 55 sec).
The Table 14 below summarizes the inhibition of NOX activity as measured by the above described assay 1 and expressed by their inhibitory constant calculated by non linear regression analysis using GraphPad Prism Software (GraphPad Software Co., San Diego, CA): […]

Ki | Structure (SMILES)
486 nM | COc1cc(-c2ccc3[nH]c(-c4ccnc(C)c4)cc3c2)ccn1 [Example 1, 5-(2-methoxypyridin-4-yl)-2-(2-methylpyridin-4-yl)-1H-indole]
750 nM | Cc1cc(-c2cc3cc(-c4cncc(F)c4)ccc3[nH]2)ccn1 [Example 6, 5-(5-fluoropyridin-3-yl)-2-(2-methylpyridin-4-yl)-1H-indole]
805 nM | Cc1cc(-c2cc3cc(-c4cncc(N(C)C)c4)ccc3[nH]2)ccn1 [Example 9, N,N-dimethyl-5-(2-(2-methylpyridin-4-yl)-1H-indol-5-yl)pyridin-3-amine]
315 nM | COc1cncc(-c2ccc3[nH]c(-c4ccnc(N5CCC5)c4)cc3c2)c1 [Example 13, 2-(2-(azetidin-1-yl)pyridin-4-yl)-5-(5-methoxypyridin-3-yl)-1H-indole]
41 nM | COc1cncc(-c2ccc3[nH]c(-c4ccnc(OC)c4)cc3c2)c1 [Example 14, 5-(5-methoxypyridin-3-yl)-2-(2-methoxypyridin-4-yl)-1H-indole]
666 nM | COc1cncc(-c2ccc3[nH]c(-c4ccnc(C)n4)cc3c2)c1 [Example 16, 5-(5-methoxypyridin-3-yl)-2-(2-methylpyrimidin-4-yl)-1H-indole]
958 nM | COc1cncc(-c2ccc3[nH]c(-c4csc(C)n4)cc3c2)c1 [Example 18, 4-(5-(5-methoxypyridin-3-yl)-1H-indol-2-yl)-2-methylthiazole]
231 nM | COc1cncc(-c2ccc3[nH]c(-c4ccnc(C5CC5)c4)cc3c2)c1 [Example 19, 2-(2-cyclopropylpyridin-4-yl)-5-(5-methoxypyridin-3-yl)-1H-indole]
158 nM | COc1cncc(-c2ccc3[nH]c(-c4ccnc(N5CC(O)C5)c4)cc3c2)c1 [Example 20, 1-(4-(5-(5-methoxypyridin-3-yl)-1H-indol-2-yl)pyridin-2-yl)azetidin-3-ol]
142 nM | COc1cncc(-c2cc3cc(-c4ccc(=O)n(C)c4)[nH]c3cc2Cl)c1 [Example 57, 5-(6-chloro-5-(5-methoxypyridin-3-yl)-1H-indol-2-yl)-1-methylpyridin-2(1H)-one]
122 nM | COc1cncc(-c2ccc3[nH]c(-c4ccnc(C)c4)cc3c2Cl)c1 [Example 65]
406 nM | COc1cncc(-c2cc3cc(-c4ccnc(C)c4)[nH]c3cc2C)c1 [Example 68]
289 nM | Cc1cc(-c2cc3cc(-c4cncc(OCC5CC5)c4)ccc3[nH]2)ccn1 [Example 81]

Further lines, the molecule ahead of its results:

Structure (SMILES) | Ki
Cc1cc(-c2cc3cc(-c4ccnc(N)c4)ccc3[nH]2)ccn1 [Example 5, 4-(2-(2-methylpyridin-4-yl)-1H-indol-5-yl)pyridin-2-amine] | 348 nM
Cc1cc(-c2cc3cc(-c4ccc5[nH]c(C)nc5c4)ccc3[nH]2)ccn1 [Example 12, 2-methyl-5-(2-(2-methylpyridin-4-yl)-1H-indol-5-yl)-1H-benzo[d]imidazole] | 590 nM
COc1cncc(-c2ccc3[nH]c(-c4ccnc(N5CCOCC5)c4)cc3c2)c1 [Example 23] | 296 nM
COc1cncc(-c2ccc3[nH]c(-c4cncc(F)c4)cc3c2)c1 [Example 24, 2-(5-fluoropyridin-3-yl)-5-(5-methoxypyridin-3-yl)-1H-indole] | 311 nM
Cc1cc(-c2ccc3[nH]c(-c4ccc(N5CCOCC5)nc4)cc3c2)ccn1 [Example 26] | 221 nM
COc1cncc(-c2ccc3[nH]c(-c4ccc(C5COC5)nc4)cc3c2)c1 [Example 27, 5-(5-methoxypyridin-3-yl)-2-(6-(oxetan-3-yl)pyridin-3-yl)-1H-indole] | 147 nM
Cc1cc(-c2ccc3[nH]c(-c4ccc(N(C)C)nc4)cc3c2)ccn1 [Example 29, N,N-dimethyl-5-(5-(2-methylpyridin-4-yl)-1H-indol-2-yl)pyridin-2-amine] | 206 nM
COc1cncc(-c2cc3cc(-c4ccc(N5CCC56COC6)nc4)[nH]c3cc2Cl)c1 [Example 32, 1-(5-(6-chloro-5-(5-methoxypyridin-3-yl)-1H-indol-2-yl)pyridin-2-yl)-6-oxa-1-azaspiro[3.3]heptane] | 27 nM
COc1cncc(-c2cc3cc(-c4ccnc(N5CCC56COC6)c4)[nH]c3cc2Cl)c1 [Example 33, 1-(4-(6-chloro-5-(5-methoxypyridin-3-yl)-1H-indol-2-yl)pyridin-2-yl)-6-oxa-1-azaspiro[3.3]heptane] | 36 nM
Cc1cc(-c2cc3cc(-c4ccnc(N5CCC56COC6)c4)[nH]c3cc2Cl)ccn1 [Example 34, 1-(4-(6-chloro-5-(2-methylpyridin-4-yl)-1H-indol-2-yl)pyridin-2-yl)-6-oxa-1-azaspiro[3.3]heptane] | 94 nM
COc1cncc(-c2cc3cc(-c4ccc(N5CC(C(=O)O)C5)nc4)[nH]c3cc2Cl)c1 [Example 39, 1-(5-(6-chloro-5-(5-methoxypyridin-3-yl)-1H-indol-2-yl)pyridin-2-yl)azetidine-3-carboxylic acid] | 345 nM
COc1cncc(-c2cc3cc(-c4ccc(N5CCS(=O)(=O)CC5)nc4)[nH]c3cc2Cl)c1 [Example 49, 4-(5-(6-chloro-5-(5-methoxypyridin-3-yl)-1H-indol-2-yl)pyridin-2-yl)thiomorpholine 1,1-dioxide] | 105 nM
COc1cncc(-c2cc3cc(-c4cnc5c(c4)OCCN5C)[nH]c3cc2Cl)c1 [Example 53, 7-(6-chloro-5-(5-methoxypyridin-3-yl)-1H-indol-2-yl)-4-methyl-3,4-dihydro-2H-pyrido[3,2-b][1,4]oxazine] | 23 nM
COc1cncc(-c2cc3cc(-c4ccc(C(O)C5COC5)nc4)[nH]c3cc2Cl)c1 (stereo not shown) [Example 54, (5-(6-chloro-5-(5-methoxypyridin-3-yl)-1H-indol-2-yl)pyridin-2-yl)(oxetan-3-yl)methanol] | 415 nM
COc1cncc(-c2cc(Cl)c3[nH]c(-c4ccc(N5CCOCC5)nc4)cc3c2)c1 [Example 59] | 552 nM
Clc1cncc(-c2cc3cc(-c4ccc(N5CCOCC5)nc4)[nH]c3cc2Cl)c1 [Example 62] | 136 nM
Cc1c(-c2ccncc2)ccc2[nH]c(-c3ccncc3)cc12 [Example 69] | 601 nM
COc1cc(-c2ccc3[nH]c(-c4ccnc(C)c4)cc3c2)cnc1OCc1ccccc1 [Example 83] | 657 nM
Clc1cc2[nH]c(-c3ccc(N4CCOCC4)nc3)cc2cc1-c1cncc2sccc12 [Example 89] | 103 nM
Fc1ccc2nccc(-c3cc4cc(-c5ccc(N6CCOCC6)nc5)[nH]c4cc3Cl)c2c1 [Example 90] | 205 nM
COc1ccc2c(-c3cc4cc(-c5ccc(N6CCOCC6)nc5)[nH]c4cc3Cl)cccc2n1 [Example 92] | 770 nM
CN(C)c1cc(-c2cc3cc(-c4ccnc5ccc(F)cc45)ccc3[nH]2)ccn1 [Example 93, 4-(5-(6-fluoroquinolin-4-yl)-1H-indol-2-yl)-N,N-dimethylpyridin-2-amine] | 26 nM
c1ccc2c(-c3ccc4[nH]c(-c5ccncc5)cc4c3)ccnc2c1 [Example 101] | 300 nM
COc1cncc(-c2ccc3[nH]c(-c4ccncn4)cc3c2)c1 [Example 109] | 806 nM
COc1cncc(-c2ccc3c(c2)cc(-c2ccnc(C)c2)n3C(C)C)c1 [Example 111, 1-isopropyl-5-(5-methoxypyridin-3-yl)-2-(2-methylpyridin-4-yl)-1H-indole] | 533 nM
COc1cncc(-c2cc3cc(-c4ccc(N5CCOCC5)nc4)n(C)c3cc2Cl)c1 [Example 112] | 170 nM
COCCn1c(-c2ccncc2)cc2cc(-c3ccncc3)ccc21 [Example 113, 1-(2-methoxyethyl)-2,5-di(pyridin-4-yl)-1H-indole] | 969 nM
